In US20260356840A1, “[1,2,4]TRIAZOLO[1,5-A]PYRIMIDINONE WRN INHIBITORS” (Nimbus Wadjet, Inc., priority 2023, published 2026):

biological target: T1, human Werner helicase (Uniprot Q14191, amino acids 517-1235 with L1074F point mutation), WRN-BV08 (Homo sapiens, UniProt Q14191, L1074F); assay: WRN (BV08) ADP-Glo Assay; assay type: biochemical
T1 construct: Uniprot Q14191, amino acids 517-1235 with L1074F point mutation; TEV cleavable 8xHis tag (C, cleaved yes); made in house; host or cells: Sf9 insect cells (baculovirus, pFastBac)
Experimental: DNA duplex was synthesized at BGI (Shenzhen, China) and was composed of strand 1 with the sequence 5′-[…]-3′ (SEQ ID NO.: 1) and strand 2 with the sequence 5′-[…]-3′ (SEQ ID NO.: 2). DNA strands were annealed by heating to 95 °C for 5 minutes followed by slow cooling to room temperature. […] DMSO (0.1 μl) was added to columns 12, rows A-H and column 24, rows I-P for the maximum signal control.
Where RLU=relative luminescence units, sample=signal in sample well, and MIN and MAX are the respective minimum and maximum signal controls. • Four-parameter IC50 fit equation:
Y=Bottom+(Top−Bottom)/(1+(IC50/X)^Hill Slope)
Where top and bottom are normally allowed to float but may be fixed at 100 or 0 respectively in a 3-parameter fit. Y is the % inhibition and X is the compound concentration.
Molecular Biology and virus production. […] The baculovirus from the expression plasmid WRN-BV08 was generated from transfection and amplification following the manufacturer's instructions.
Sf9 cells grown in SF900II media were infected with 1:200 WRN-BV08 P2 virus and incubated for protein expression for 72 h at 27 °C. The WRN protein was purified using the following protocol. The cell pellets were thawed and resuspended in buffer A (50 mM Tris, pH 7.5, 500 mM NaCl, 1 mM TCEP, 10% Glycerol) supplemented with 0.5% CHAPS, 1 mM [COMPOUND LEFT OUT], 1 μg/ml Leupeptin, 1 μg/ml Pepstatin, and the Pierce Universal Nuclease and cocktail tablet. Cleared lysates were loaded onto a Ni Sepharose™ excel column and washed with buffer A and bound protein was eluted with buffer A supplemented with 300 mM imidazole. The eluted protein was dialyzed against buffer A and digested by His-tagged TEV (1:5 ratio) overnight at 4 °C. […] Untagged WRN protein was eluted from the column with buffer A supplemented with 20 mM imidazole, dialyzed overnight into buffer B (50 mM Tris, pH 7.5, 1 mM TCEP, 10% Glycerol) supplemented with 150 mM NaCl and loaded onto a Heparin column. Proteins were eluted with a step gradient of buffer B supplemented with 150 mM, 200 mM, 300 mM and 500 mM NaCl.

T1 sequence (Q14191 517-1235 L1074F): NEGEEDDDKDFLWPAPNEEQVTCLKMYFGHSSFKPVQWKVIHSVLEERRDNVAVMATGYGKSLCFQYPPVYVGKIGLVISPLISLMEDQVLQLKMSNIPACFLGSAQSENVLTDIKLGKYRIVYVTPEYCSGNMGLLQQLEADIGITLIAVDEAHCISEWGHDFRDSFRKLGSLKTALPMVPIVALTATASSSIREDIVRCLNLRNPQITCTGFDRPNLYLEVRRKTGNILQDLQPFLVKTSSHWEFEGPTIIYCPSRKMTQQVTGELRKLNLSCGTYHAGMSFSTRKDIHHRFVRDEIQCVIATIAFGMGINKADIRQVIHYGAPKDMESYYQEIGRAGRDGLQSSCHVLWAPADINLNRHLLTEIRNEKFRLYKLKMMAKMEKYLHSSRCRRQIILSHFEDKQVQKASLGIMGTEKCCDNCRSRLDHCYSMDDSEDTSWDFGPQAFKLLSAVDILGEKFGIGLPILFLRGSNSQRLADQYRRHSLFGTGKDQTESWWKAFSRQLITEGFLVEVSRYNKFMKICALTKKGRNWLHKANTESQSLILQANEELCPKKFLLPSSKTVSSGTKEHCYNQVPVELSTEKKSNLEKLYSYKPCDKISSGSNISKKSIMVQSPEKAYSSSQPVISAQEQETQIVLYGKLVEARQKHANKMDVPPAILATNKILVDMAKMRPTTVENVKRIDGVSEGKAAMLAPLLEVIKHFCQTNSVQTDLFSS

`CCc1c(N2CCN(C(=O)c3nsnc3O)CC2)c(=O)n2nc(C3=CCOCC3)nc2n1CC(=O)Nc1ccc(C(F)(F)F)cc1Cl` [Compound I-27, N-[2-chloro-4-(trifluoromethyl)phenyl]-2-[2-(3,6-dihydro-2H-pyran-4-yl)-5-ethyl-6-[4-(4-hydroxy-1,2,5-thiadiazole-3-carbonyl)piperazin-1-yl]-7-oxo-4H,7H-[1,2,4]triazolo[1,5-a]pyrimidin-4-yl]acetamide] and `CCc1c(N2CCN(C(=O)c3cnn(C)c3O)CC2)c(=O)n2nc(C3=CCOCC3)nc2n1CC(=O)Nc1ccc(C(F)(F)F)cc1Cl` [Compound I-26, N-[2-chloro-4-(trifluoromethyl)phenyl]-2-[2-(3,6-dihydro-2H-pyran-4-yl)-5-ethyl-6-[4-(5-hydroxy-1-methyl-1H-pyrazole-4-carbonyl)piperazin-1-yl]-7-oxo-4H,7H-[1,2,4]triazolo[1,5-a]pyrimidin-4-yl]acetamide] fall in the same range of IC50: 5 to 50 nM for the first, 5 to 50 nM for the second.

Compared with `CCc1c(N2CCN(C(=O)c3ncc4c(c3O)OCC4)CC2)c(=O)n2nc(C3=CCOCC3)nc2n1CC(=O)Nc1ccc(C(F)(F)F)cc1Cl` [Compound I-83, N-[2-chloro-4-(trifluoromethyl)phenyl]-2-[2-(3,6-dihydro-2H-pyran-4-yl)-5-ethyl-6-(4-{7-hydroxy-2H,3H-furo[3,2-c]pyridine-6-carbonyl}piperazin-1-yl)-7-oxo-4H,7H-[1,2,4]triazolo[1,5-a]pyrimidin-4-yl]acetamide], `CCc1c(N2CCN(C(=O)c3ncc4c(c3O)CCO4)CC2)c(=O)n2nc(C3=CCOCC3)nc2n1CC(=O)Nc1ccc(C(F)(F)F)cc1Cl` [Compound I-84, N-[2-chloro-4-(trifluoromethyl)phenyl]-2-[2-(3,6-dihydro-2H-pyran-4-yl)-5-ethyl-6-(4-{4-hydroxy-2H,3H-furo[2,3-c]pyridine-5-carbonyl}piperazin-1-yl)-7-oxo-4H,7H-[1,2,4]triazolo[1,5-a]pyrimidin-4-yl]acetamide] is lower in IC50: 5 to 50 nM for the first, under 5 nM for the second.

`CCc1c(N2CCN(C(=O)c3c(C)nn(C)c3C)CC2)c(=O)n2nc(-c3ccnc(OC)c3)nc2n1CC(=O)Nc1ccc(C(F)(F)F)cc1Cl` [Compound I-50, N-[2-chloro-4-(trifluoromethyl)phenyl]-2-[5-ethyl-2-(2-methoxypyridin-4-yl)-7-oxo-6-[4-(1,3,5-trimethyl-1H-pyrazole-4-carbonyl)piperazin-1-yl]-4H,7H-[1,2,4]triazolo[1,5-a]pyrimidin-4-yl]acetamide] and `CCc1c(N2CCN(C(=O)c3ncn(C)n3)CC2)c(=O)n2nc(-c3ccnc(OC)c3)nc2n1CC(=O)Nc1ccc(C(F)(F)F)cc1Cl` [Compound I-73, N-[2-chloro-4-(trifluoromethyl)phenyl]-2-[5-ethyl-2-(2-methoxypyridin-4-yl)-6-[4-(1-methyl-1H-1,2,4-triazole-3-carbonyl)piperazin-1-yl]-7-oxo-4H,7H-[1,2,4]triazolo[1,5-a]pyrimidin-4-yl]acetamide] fall in the same range of IC50: 5 to 50 nM for the first, 5 to 50 nM for the second.

`CCc1c(N2CCN(C(=O)c3cnn(C(F)F)c3)CC2)c(=O)n2nc(-c3ccnc(OC)c3)nc2n1CC(=O)Nc1ccc(C(F)(F)F)cc1Cl` [Compound I-61, N-[2-chloro-4-(trifluoromethyl)phenyl]-2-(6-{4-[1-(difluoromethyl)-1H-pyrazole-4-carbonyl]piperazin-1-yl}-5-ethyl-2-(2-methoxypyridin-4-yl)-7-oxo-4H,7H-[1,2,4]triazolo[1,5-a]pyrimidin-4-yl)acetamide] and `CCc1c(N2CCN(C(C)=O)CC2)c(=O)n2nc(-c3ccnc(OC)c3)nc2n1CC(=O)Nc1ccc(C(F)(F)F)cc1Cl` [Compound I-46, 2-[6-(4-acetylpiperazin-1-yl)-5-ethyl-2-(2-methoxypyridin-4-yl)-7-oxo-4H,7H-[1,2,4]triazolo[1,5-a]pyrimidin-4-yl]-N-[2-chloro-4-(trifluoromethyl)phenyl]acetamide] fall in the same range of IC50: 5 to 50 nM for the first, 5 to 50 nM for the second.

`CCc1c(N2CCN(C(=O)c3ncnc(C)c3O)CC2)c(=O)n2nc(-c3cc(C)nc(OC)c3)nc2n1CC(=O)Nc1ccc(C(F)(F)F)cc1Cl` [Compound I-43, N-[2-chloro-4-(trifluoromethyl)phenyl]-2-{5-ethyl-6-[4-(5-hydroxy-6-methylpyrimidine-4-carbonyl)piperazin-1-yl]-2-(2-methoxy-6-methylpyridin-4-yl)-7-oxo-4H,7H-[1,2,4]triazolo[1,5-a]pyrimidin-4-yl}acetamide] and `CCc1c(N2CCN(C(=O)c3ncnc(C)c3O)CC2)c(=O)n2nc(-c3ccnc(OC)c3)nc2n1CC(=O)Nc1ccc(C(F)(F)F)cc1Cl` [Compound I-21, N-[2-chloro-4-(trifluoromethyl)phenyl]-2-{5-ethyl-6-[4-(5-hydroxy-6-methylpyrimidine-4-carbonyl)piperazin-1-yl]-2-(2-methoxypyridin-4-yl)-7-oxo-4H,7H-[1,2,4]triazolo[1,5-a]pyrimidin-4-yl}acetamide] fall in the same range of IC50: 5 to 50 nM for the first, 5 to 50 nM for the second.

`CCc1c(N2CCN(C(=O)c3cnn(C)c3)CC2)c(=O)n2nc(-c3ccnc(OC)c3)nc2n1CC(=O)Nc1ccc(S(F)(F)(F)(F)F)cc1Cl` [Compound I-82, N-[2-chloro-4-(pentafluoro-lambda6-sulfanyl)phenyl]-2-[5-ethyl-2-(2-methoxypyridin-4-yl)-6-[4-(1-methyl-1H-pyrazole-4-carbonyl)piperazin-1-yl]-7-oxo-4H,7H-[1,2,4]triazolo[1,5-a]pyrimidin-4-yl]acetamide] and `CCc1c(N2CCN(C(=O)c3noc(C)n3)CC2)c(=O)n2nc(-c3ccnc(OC)c3)nc2n1CC(=O)Nc1ccc(C(F)(F)F)cc1Cl` [Compound I-78, N-[2-chloro-4-(trifluoromethyl)phenyl]-2-[5-ethyl-2-(2-methoxypyridin-4-yl)-6-[4-(5-methyl-1,2,4-oxadiazole-3-carbonyl)piperazin-1-yl]-7-oxo-4H,7H-[1,2,4]triazolo[1,5-a]pyrimidin-4-yl]acetamide] fall in the same range of IC50: 5 to 50 nM for the first, 5 to 50 nM for the second.

First: CCc1c(N2CCN(C(=O)c3ncc4c(c3O)OCC4)CC2)c(=O)n2nc(-c3ccnc(OC)c3)nc2n1CC(=O)Nc1ccc(C(F)(F)F)cc1Cl [Compound I-86, N-[2-chloro-4-(trifluoromethyl)phenyl]-2-[5-ethyl-6-(4-{7-hydroxy-2H,3H-furo[3,2-c]pyridine-6-carbonyl}piperazin-1-yl)-2-(2-methoxypyridin-4-yl)-7-oxo-4H,7H-[1,2,4]triazolo[1,5-a]pyrimidin-4-yl]acetamide]
Second: CCc1c(N2CCN(C(=O)c3nocc3O)CC2)c(=O)n2nc(-c3ccnc(OC)c3)nc2n1CC(=O)Nc1ccc(C(F)(F)F)cc1Cl [Compound I-88, N-[2-chloro-4-(trifluoromethyl)phenyl]-2-{5-ethyl-6-[4-(4-hydroxy-1,2-oxazole-3-carbonyl)piperazin-1-yl]-2-(2-methoxypyridin-4-yl)-7-oxo-4H,7H-[1,2,4]triazolo[1,5-a]pyrimidin-4-yl}acetamide]
The IC50 of the first is lower: under 5 nM for the first, 5 to 50 nM for the second. The first is the more potent here.

`CCc1c(N2CCN(C(=O)c3ccnc(OC)c3O)CC2)c(=O)n2nc(C3=CCOCC3)nc2n1CC(=O)Nc1ccc(C(F)(F)F)cc1Cl` [Compound I-34, N-[2-chloro-4-(trifluoromethyl)phenyl]-2-[2-(3,6-dihydro-2H-pyran-4-yl)-5-ethyl-6-[4-(3-hydroxy-2-methoxypyridine-4-carbonyl)piperazin-1-yl]-7-oxo-4H,7H-[1,2,4]triazolo[1,5-a]pyrimidin-4-yl]acetamide] and `CCc1c(N2CCN(C(=O)c3ncnc(C)c3O)CC2)c(=O)n2nc(-c3cnc(OC)c(C)c3)nc2n1CC(=O)Nc1ccc(C(F)(F)F)cc1Cl` [Compound I-42, N-[2-chloro-4-(trifluoromethyl)phenyl]-2-{5-ethyl-6-[4-(5-hydroxy-6-methylpyrimidine-4-carbonyl)piperazin-1-yl]-2-(6-methoxy-5-methylpyridin-3-yl)-7-oxo-4H,7H-[1,2,4]triazolo[1,5-a]pyrimidin-4-yl}acetamide] fall in the same range of IC50: 5 to 50 nM for the first, 5 to 50 nM for the second.

`CCc1c(N2CCN(C(=O)c3ncnc(C)c3O)CC2)c(=O)n2nc(-c3cnn(C4CC4)c3)nc2n1CC(=O)Nc1ccc(C(F)(F)F)cc1Cl` [Compound I-32, N-[2-chloro-4-(trifluoromethyl)phenyl]-2-[2-(1-cyclopropyl-1H-pyrazol-4-yl)-5-ethyl-6-[4-(5-hydroxy-6-methylpyrimidine-4-carbonyl)piperazin-1-yl]-7-oxo-4H,7H-[1,2,4]triazolo[1,5-a]pyrimidin-4-yl]acetamide] was tested, and the IC50 was 5 to 50 nM.
